Consider four compounds from patent US9034791B2, “Method for controlling noxious organisms” (Sumitomo Chemical Company, Limited, priority 2012, dated 2015).

Holding throughout (type): in vivo
Holding throughout (conditions): day 7 after sowing, scale 0 to 100

The test system of experiment [1] is Ivyleaf morningglory. In words: Pot test, herbicidal effect with fludioxonil-treated soybean seeds and soil-applied PPO inhibitor. Here is the method: (§1) The evaluation of the herbicidal effect is classified into 0 to 100, in which the numeral “0” indicates no or little difference in the state of germination or growth of test weeds as compared with the untreated weeds at the time of the investigation, and the numeral “100” indicates the complete death of the test plants or the complete suppression of their germination or growth.
In a plastic cup of 100 mm in inside diameter and 40 mm in height, 14.25 mg of a fludioxonil suspension (a suspension containing 20% of fludioxonil, trade name: Savior flowable, manufactured by Syngenta Japan K. K.) and 40 soybean seeds were placed. The plastic cup was shaken by the hand so that the fludioxonil suspension was attached to the soybean seeds. The weight of 40 soybean seeds was 9.55 g, and the amount of fludioxonil by the above treatment was calculated as 30 g per 100 kg of the soybean seeds.
In the same manner, 151.4 mg of the fludioxonil suspension was attached to 40 soybean seeds. The weight of 40 soybean seeds was 10.1 g, and the amount of fludioxonil by the above treatment was calculated as 300 g per 100 kg of the soybean seeds.
(§2) A soil was packed in a plastic pot of 120 mm in inside diameter×80 mm in height. The above treated soybean seeds were sown in this pot at a rate of two seeds per pot, and the seeds of ivyleaf morningglory were sown at a rate of four seeds per pot. On the day of sowing the soybean seeds and after sowing the soybean seeds, an aqueous diluted solution (113 mg of active ingredient/L or 225 mg of active ingredient/L) of a flumioxazin granular wettable powder (a granular wettable powder containing 51% of flumioxazin, trade name: Valor SX, manufactured by Valent USA), an aqueous diluted solution (226 mg of active ingredient/L or 1130 mg of active ingredient/L) of a sulfentrazone granular wettable powder (a granular wettable powder containing 75% of sulfentrazone, trade name: Cover, manufactured by DuPont), or an aqueous diluted solution (113 mg/L or 226 mg/L) of saflufenacil was uniformly sprayed on the soil surface with a sprayer so as to apply the amount described in Tables 1 to 3. The aqueous diluted solution of saflufenacil was prepared by dissolving a predetermined amount of saflufenacil in acetone containing 2% (w/v) of Tween 20, and diluting this solution with water so as to have an acetone concentration of 10% by volume.
On day 7 after sowing the seeds of soybean and ivyleaf morningglory, the herbicidal effect was investigated.

Experiment [2] concerns Ivyleaf morningglory. Briefly: Pot test, herbicidal effect with fludioxonil-treated corn seeds and soil-applied PPO inhibitor. Here is the method:
as §1
In a plastic cup of 100 mm in inside diameter and 40 mm in height, 19.8 mg of a fludioxonil suspension (a suspension containing 20% of fludioxonil, trade name: Savior flowable, manufactured by Syngenta Japan K. K.) and 40 corn seeds were placed. The plastic cup was shaken by the hand so that the fludioxonil suspension was attached to the corn seeds. The weight of 40 corn seeds was 13.2 g, and the amount of fludioxonil by the above treatment was calculated as 30 g per 100 kg of the corn seeds.
In the same manner, 193.5 mg of the fludioxonil suspension was attached to 40 corn seeds. The weight of 40 corn seeds was 12.9 g, and the amount of fludioxonil by the above treatment was calculated as 300 g per 100 kg of the corn seeds.
as §2, with “treated corn” for “treated soybean”, “the corn” for “the soybean”, “Tables 4” for “Tables 1”, “to 6.” for “to 3.”
On day 7 after sowing the seeds of corn and ivyleaf morningglory, the herbicidal effect was investigated.

Experiment [3] has as its system Ivyleaf morningglory. In words: Pot test, herbicidal effect with fludioxonil-treated cotton seeds and soil-applied PPO inhibitor. Here is the method: as §1
In a plastic cup of 100 mm in inside diameter and 40 mm in height, 8.55 mg of a fludioxonil suspension (a suspension containing 20% of fludioxonil, trade name: Savior flowable, manufactured by Syngenta Japan K. K.) and 40 cotton seeds were placed. The plastic cup was shaken by the hand so that the fludioxonil suspension was attached to the cotton seeds. The weight of 40 cottonseeds was 5.7 g, and the amount of fludioxonil by the above treatment was calculated as 30 g per 100 kg of the cotton seeds.
In the same manner, 84.8 mg of the fludioxonil suspension was attached to 40 cotton seeds. The weight of 40 cotton seeds was 5.65 g, and the amount of fludioxonil by the above treatment was calculated as 300 g per 100 kg of the cotton seeds.
as §2, with “above cotton” for “above treated soybean”, “the cotton” for “the soybean”, “Tables 7” for “Tables 1”, “to 9.” for “to 3.”
On day 7 after sowing the seeds of cotton and ivyleaf morningglory, the herbicidal effect was investigated.

Where [4] appears, read: fludioxonil None, PPO inhibitor 100 g/ha soil surface.
[5] abbreviates: fludioxonil None, PPO inhibitor 500 g/ha soil surface.
The mark [6] stands for this setting: fludioxonil None, PPO inhibitor 50 g/ha soil surface.
Setting [7] is: fludioxonil 30 g/100 kg of seeds, PPO inhibitor None.
Setting [8] is: fludioxonil 300 g/100 kg of seeds, PPO inhibitor None.

Each structure is given as a SMILES string.

Take `Cc1nn(-c2cc(NS(C)(=O)=O)c(Cl)cc2Cl)c(=O)n1C(F)F` [sulfentrazone]: the “Herbicidal effect Ivyleaf morningglory” value in experiment [1] (setting [4]) turned out to be 20; in experiment [1] (setting [5]), 60; in experiment [2] (setting [4]), 40; in experiment [3] (setting [5]), 30.
`CC(C)N(C)S(=O)(=O)NC(=O)c1cc(-n2c(=O)cc(C(F)(F)F)n(C)c2=O)c(F)cc1Cl` [saflufenacil]: the “Herbicidal effect Ivyleaf morningglory” value is recorded as 40 in experiment [1] (setting [4]), 30 in experiment [2] (setting [4]), 30 in experiment [3] (setting [6]) and 40 in experiment [3] (setting [4]).
For the compound `N#Cc1c[nH]cc1-c1cccc2c1OC(F)(F)O2` [fludioxonil], the “Herbicidal effect Ivyleaf morningglory” value in experiment [1] (setting [7]), in experiment [1] (setting [8]), in experiment [2] (setting [7]), in experiment [2] (setting [8]), in experiment [3] (setting [7]) and in experiment [3] (setting [8]) was 0 in each case.
With `C#CCN1C(=O)COc2cc(F)c(N3C(=O)C4=C(CCCC4)C3=O)cc21` [flumioxazin], the “Herbicidal effect Ivyleaf morningglory” value in experiment [1] (setting [4]) is 20; in experiment [2] (setting [6]), 20; in experiment [2] (setting [4]) it was 50; in experiment [3] (setting [4]), 30.
